Data from patent US20220304951A1, “ANTICANCER COMPOSITIONS AND METHODS FOR USING SAME” (Lispiro LLC, priority 2021, published 2022).

Assays:
Assay type in all cases: cell-based
[1] = tested on: normal human epithelial like cells (CRL-1790); test: New fuchsine treatment of normal human epithelial like cells, H&E staining, light microscopy (Example 1); settings: all tested concentrations (25, 50, 100, 150 uM), 48 hours, H&E stain
Procedure: (§1) 4 flasks Thermo Scientific Nunc Nunclon Delta Surface 12.5 cm (Cat.No136196) with McCoy's5A complete medium were seeded with cell culture of CRL1790 (ATCC) and 4 flasks Thermo Scientific Nunc Nunclon Delta Surface 12.5 cm (Cat.No136196) with McCoy's5A complete medium were seeded with cell culture of HT29 (ATCC) and were kept at 37 degrees 5% CO2 in CO2 incubator until it reached of 70% confluence (2 days). After reaching of 70% confluence flasks McCoy's5A medium with 10% of FBS was changed to the same medium with different concertation of new fuchsine (0 uM, 25 uM, 50 uM, 100 uM, 150 uM) (Sigma Cat. No 72200). Flasks were kept in the CO2 incubator 5% CO2, 37-degree C for additional 48 hours. After 48 hours of treatment all flasks were stained by fixed by 10% Formaldehyde and stained by H&E. After completing of the staining protocol the flasks were examined in the light microscope under magnification x100 and multiple pictures were taken using Olympus BX51 microscope and Olympus DP73 digital camera.

[2] = tested on: Human colon carcinoma cells (HT29); test: New fuchsine treatment of human colon carcinoma cells, H&E staining, light microscopy (Example 1); settings: 48 hours, H&E stain
Procedure: as §1

[3] = tested on: normal human epithelial like cells (CRL-1790); test: New fuchsine treatment of normal human epithelial like cells, H&E staining, light microscopy (Example 2); settings: all tested concentrations (50 uM), 12 hours, H&E stain
Procedure: (§2) 2 flasks Thermo Scientific Nunc Nunclon Delta Surface 12.5 cm (Cat. No 136196) with McCoy's5A complete medium were seeded with cell culture of CRL1790 (ATCC) and 2 flasks Thermo Scientific Nunc Nunclon Delta Surface 12.5 cm (Cat. No 136196) with DMEM complete medium were seeded with cell culture of HT1080 (ATCC) and were kept at 37 degrees 5% CO2 in CO2 incubator until it reached of 100% confluence (2 days). After reaching of 100% confluence medium with 10% of FBS was changed to the same medium with different concertation of New Fuchsin (0 uM, and 50 uM) (Sigma Cat. No 72200). Flasks were kept in the CO2 incubator 5% CO2, 37-degree C for additional 12 hours. After 12 hours of treatment all flasks were stained by fixed by 10% Formaldehyde and stained by H&E. After completing of the staining protocol the flasks were examined in the light microscope under magnification x100 and multiple pictures were taken using Olympus BX51 microscope and Olympus DP73 digital camera.

[4] = tested on: Fibrosarcoma cells (HT-1080); test: New fuchsine treatment of human fibrosarcoma cells, H&E staining, light microscopy (Example 2); settings: new fuchsine 50 uM, 12 hours, H&E stain; corresponds to empty plastic
Procedure: as §2

[5] = tested on: Human Cervical carcinoma cell line (HeLa); test: New fuchsine treatment of HeLa cells, Trypan blue, automatic cell counter (Example 3)
Procedure: (§3) Hela cells were growing in incubator at 37 degrees C. and 5% CO2 until 70% confluence was reached. After reaching of 70% confluence, medium was changed to medium with different concentrations of new fuchsine (0 μM, 15 μM, 31 μM, 62 μM, 125 μM and 250 μM). Flasks were kept in the CO2 incubator (5% CO2, 37-degree C) for additional 24 hours. After 24 hours of treatment, cells were detached with Trypsin, washed with fresh medium and stained with Trypan blue. Number of cells and viability were examined in automatic cell counter (Invitrogen).

[6] = tested on: human colon adenocarcinoma cells (HT29); test: New fuchsine treatment of HT29 cells, Trypan blue, automatic cell counter (Example 4)
Procedure: as §3, with “The general study methods of study were as follows: HT29 cells” for “Hela cells”, “were grown” for “were growing”, “different concentration” for “different concentrations”, “of treatment” for “of treatment,”, “blue. Cell” for “blue. Number of cells and”, “viability was” for “viability were”

[7] = new fuchsine 250 uM, 24 hours, Trypan blue

SMILES: CC1=CC(=C(c2ccc(N)c(C)c2)c2ccc(N)c(C)c2)C=CC1=N.Cl [new fuchsine, [4-[bis(4-amino-3-methylphenyl)methylidene]-2-methylcyclohexa-2,5-dien-1-ylidene]azanium; chloride]
- visual toxicity to normal human epithelial like cells (CRL-1790) [1]: did not exhibit any visual toxicity
- concentration at which first signs of toxicity to colon carcinoma cells (HT29) can be seen [2]: 50 µM
- toxicity to carcinoma cells (HT29) ([2]; new fuchsine 150 uM, corresponds to empty plastic): 100%
- visual toxicity to normal human epithelial like cells (CRL-1790) [3]: did not exhibit any visual toxicity
- toxicity to Fibrosarcoma cells (HT-1080) [4]: 100%
- toxicity to human carcinoma cells (HeLa) ([5]; all tested concentrations (15, 31, 62, 125, 250 μM), 24 hours, Trypan blue viability and cell count): exhibited toxicity
- toxicity to carcinoma cells (HeLa) [5, 7]: 100%
- cytotoxic effect on cervical carcinoma (HeLa cells), summary ([5]; summary of the examples): high efficacy, dose dependent cytotoxic effect
- toxicity to human colon adenocarcinoma cells (HT29) ([6]; all tested concentrations (15, 31, 62, 125, 250 μM), 24 hours, Trypan blue viability): did exhibit toxicity
- toxicity to colon adenocarcinoma cells (HT29) [6, 7]: < 100%
- efficacy for colon carcinoma (HT29 cells) compared with cervical carcinoma (HeLa cells), summary ([6]; summary of the examples): much less effective
